According to ChEMBL document CHEMBL5131391, “One-pot three-component synthesis of novel pyrazolo[3,4-b]pyridines as potent antileukemic agents” (Eur J Med Chem, 2022):

Each compound was assayed on CCRF-CEM (assay: Antiproliferative activity against human CCRF-CEM cells assessed as growth inhibition at 10 uM measured after 48 hrs by NCI protocol based SRB assay relative to control). Details: read-out: GI.
Assay type: functional

| Structure (SMILES) | inhibition of growth at 10 µM [%] |
| --- | --- |
| COc1cc(-c2c(C#N)c(-c3ccccc3)nc3c2c(-c2ccccc2)nn3-c2ccccc2)ccc1O | 31 |

What follows are compounds tested on HOP-62 (assay: Antiproliferative activity against human HOP-62 cells assessed as growth inhibition at 10 uM measured after 48 hrs by NCI protocol based SRB assay relative to control). Details: read-out: GI.
Assay type: functional

| Structure (SMILES) | inhibition of growth at 10 µM [%] |
| --- | --- |
| COc1cc(-c2c(C#N)c(-c3ccccc3)nc3c2c(-c2ccccc2)nn3-c2ccccc2)ccc1O | 15 |

The compounds below were run on NCI-H226 (assay: Antiproliferative activity against human NCI-H226 cells assessed as growth inhibition at 10 uM measured after 48 hrs by NCI protocol based SRB assay relative to control). Details: read-out: GI.
Assay type: functional

| Structure (SMILES) | inhibition of growth at 10 µM [%] |
| --- | --- |
| COc1cc(-c2c(C#N)c(-c3ccccc3)nc3c2c(-c2ccccc2)nn3-c2ccccc2)ccc1O | 24 |

Each compound was assayed on HCT-116 (assay: Antiproliferative activity against human HCT-116 cells assessed as growth inhibition at 10 uM measured after 48 hrs by NCI protocol based SRB assay relative to control). Details: read-out: GI.
Assay type: functional

| Structure (SMILES) | inhibition of growth at 10 µM [%] |
| --- | --- |
| COc1cc(-c2c(C#N)c(-c3ccccc3)nc3c2c(-c2ccccc2)nn3-c2ccccc2)ccc1O | 45 |

What follows are compounds tested on COLO 205 (assay: Antiproliferative activity against human COLO 205 cells assessed as growth inhibition at 10 uM measured after 48 hrs by NCI protocol based SRB assay relative to control). Details: read-out: GI.
Assay type: functional

| Structure (SMILES) | inhibition of growth at 10 µM [%] |
| --- | --- |
| COc1cc(-c2c(C#N)c(-c3ccccc3)nc3c2c(-c2ccccc2)nn3-c2ccccc2)ccc1O | 23 |

What follows are compounds tested on KM12 (assay: Antiproliferative activity against human KM12 cells assessed as growth inhibition at 10 uM measured after 48 hrs by NCI protocol based SRB assay relative to control). Details: read-out: GI.
Assay type: functional

| Structure (SMILES) | inhibition of growth at 10 µM [%] |
| --- | --- |
| COc1cc(-c2c(C#N)c(-c3ccccc3)nc3c2c(-c2ccccc2)nn3-c2ccccc2)ccc1O | 35 |

Each compound was assayed on SF-539 (assay: Antiproliferative activity against human SF-539 cells assessed as growth inhibition at 10 uM measured after 48 hrs by NCI protocol based SRB assay relative to control). Details: read-out: GI.
Assay type: functional

| Structure (SMILES) | inhibition of growth at 10 µM [%] |
| --- | --- |
| COc1cc(-c2c(C#N)c(-c3ccccc3)nc3c2c(-c2ccccc2)nn3-c2ccccc2)ccc1O | 18 |

These compounds were tested on MDA-MB-435 (assay: Antiproliferative activity against human MDA-MB-435 cells assessed as growth inhibition at 10 uM measured after 48 hrs by NCI protocol based SRB assay relative to control). Details: read-out: GI.
Assay type: functional

| Structure (SMILES) | inhibition of growth at 10 µM [%] |
| --- | --- |
| COc1cc(-c2c(C#N)c(-c3ccccc3)nc3c2c(-c2ccccc2)nn3-c2ccccc2)ccc1O | 32 |

Each compound was assayed on Malme-3M (assay: Antiproliferative activity against human Malme-3M cells assessed as growth inhibition at 10 uM measured after 48 hrs by NCI protocol based SRB assay relative to control). Details: read-out: GI.
Assay type: functional

| Structure (SMILES) | inhibition of growth at 10 µM [%] |
| --- | --- |
| COc1cc(-c2c(C#N)c(-c3ccccc3)nc3c2c(-c2ccccc2)nn3-c2ccccc2)ccc1O | 43 |

What follows are compounds tested on LOX IMVI (assay: Antiproliferative activity against human LOX IMVI cells assessed as growth inhibition at 10 uM measured after 48 hrs by NCI protocol based SRB assay relative to control). Details: read-out: GI.
Assay type: functional

| Structure (SMILES) | inhibition of growth at 10 µM [%] |
| --- | --- |
| COc1cc(-c2c(C#N)c(-c3ccccc3)nc3c2c(-c2ccccc2)nn3-c2ccccc2)ccc1O | 26 |

The compounds below were run on IGROV-1 (assay: Antiproliferative activity against human IGROV-1 cells assessed as growth inhibition at 10 uM measured after 48 hrs by NCI protocol based SRB assay relative to control). Details: read-out: GI.
Assay type: functional

| Structure (SMILES) | inhibition of growth at 10 µM [%] |
| --- | --- |
| COc1cc(-c2c(C#N)c(-c3ccccc3)nc3c2c(-c2ccccc2)nn3-c2ccccc2)ccc1O | 13 |

What follows are compounds tested on OVCAR-3 (assay: Antiproliferative activity against human OVCAR-3 cells assessed as growth inhibition at 10 uM measured after 48 hrs by NCI protocol based SRB assay relative to control). Details: read-out: GI.
Assay type: functional

| Structure (SMILES) | inhibition of growth at 10 µM [%] |
| --- | --- |
| COc1cc(-c2c(C#N)c(-c3ccccc3)nc3c2c(-c2ccccc2)nn3-c2ccccc2)ccc1O | 23 |

Each compound was assayed on OVCAR-4 (assay: Antiproliferative activity against human OVCAR-4 cells assessed as growth inhibition at 10 uM measured after 48 hrs by NCI protocol based SRB assay relative to control). Details: read-out: GI.
Assay type: functional

| Structure (SMILES) | inhibition of growth at 10 µM [%] |
| --- | --- |
| COc1cc(-c2c(C#N)c(-c3ccccc3)nc3c2c(-c2ccccc2)nn3-c2ccccc2)ccc1O | 34 |

The compounds below were run on SN12C (assay: Antiproliferative activity against human SN12C cells assessed as growth inhibition at 10 uM measured after 48 hrs by NCI protocol based SRB assay relative to control). Details: read-out: GI.
Assay type: functional

| Structure (SMILES) | inhibition of growth at 10 µM [%] |
| --- | --- |
| COc1cc(-c2c(C#N)c(-c3ccccc3)nc3c2c(-c2ccccc2)nn3-c2ccccc2)ccc1O | 32 |

The compounds below were run on ACHN (assay: Antiproliferative activity against human ACHN cells assessed as growth inhibition at 10 uM measured after 48 hrs by NCI protocol based SRB assay relative to control). Details: read-out: GI.
Assay type: functional

| Structure (SMILES) | inhibition of growth at 10 µM [%] |
| --- | --- |
| COc1cc(-c2c(C#N)c(-c3ccccc3)nc3c2c(-c2ccccc2)nn3-c2ccccc2)ccc1O | 13 |

These compounds were tested on RXF 393 (assay: Antiproliferative activity against human RXF 393 cells assessed as growth inhibition at 10 uM measured after 48 hrs by NCI protocol based SRB assay relative to control). Details: read-out: GI.
Assay type: functional

| Structure (SMILES) | inhibition of growth at 10 µM [%] |
| --- | --- |
| COc1cc(-c2c(C#N)c(-c3ccccc3)nc3c2c(-c2ccccc2)nn3-c2ccccc2)ccc1O | 42 |

What follows are compounds tested on TK-10 (assay: Antiproliferative activity against human TK-10 cells assessed as growth inhibition at 10 uM measured after 48 hrs by NCI protocol based SRB assay relative to control). Details: read-out: GI.
Assay type: functional

| Structure (SMILES) | inhibition of growth at 10 µM [%] |
| --- | --- |
| COc1cc(-c2c(C#N)c(-c3ccccc3)nc3c2c(-c2ccccc2)nn3-c2ccccc2)ccc1O | 42 |

What follows are compounds tested on MDA-MB-468 (assay: Antiproliferative activity against human MDA-MB-468 cells assessed as growth inhibition at 10 uM measured after 48 hrs by NCI protocol based SRB assay relative to control). Details: read-out: GI.
Assay type: functional

| Structure (SMILES) | inhibition of growth at 10 µM [%] |
| --- | --- |
| COc1cc(-c2c(C#N)c(-c3ccccc3)nc3c2c(-c2ccccc2)nn3-c2ccccc2)ccc1O | 38 |

Each compound was assayed on CCRF-CEM (assay: Antiproliferative activity against human CEM cells assessed as reduction in cell viability incubated for 72 hrs by resazurin dye based assay). Details: not given.
Assay type: functional

| IC50 [µM] | Structure (SMILES) |
| --- | --- |
| > 50 | COc1cc(-c2c(C#N)c(-c3ccccc3)nc3c2c(-c2ccccc2)nn3-c2ccccc2)ccc1O |
